Assay results as given in patent US8168625B2, “Pharmaceutical composition based on agonist of benzodiazepine” (Sigma Pharma Ltda., priority 2003, dated 2012).
Read-outs that look alike come from different tables or passages of the source.

Experiments:
[1] = Bioavailability after single dose: sublingual tablets (Examples I-III) versus conventional oral tablets, crossed randomized studies; conditions: for AUC(0-inf) / AUC(0-t) / Cmax / Tmax / concentration / concentration at 0 min / concentration at 20 min / concentration at 40 min / concentration at 1 h / concentration at 2 h / concentration at 2.5 h / concentration at 4 h / concentration at 6 h / concentration at 8 h / concentration at 10 h / concentration at 12 h / concentration at 24 h: male, human, plasma; for AUC and Cmax, sublingual versus oral: sublingual versus conventional oral tablets
Procedure: Three studies were carried out, each of them with eight healthy volunteers of the male sex, recruited after information on the nature and characteristics of the principles included in the scope of the study. Each study, composed of two periods of treatment, was carried out according to a crossed and randomized scheme. All individuals received the previously established dose of the active ingredient in the form of conventional oral tablets and sublingual tablets, with a period of detoxication of, at least, seven days between the first and the following administration, according to a previously established randomized list. The sublingual tablets were placed under the tongue until complete dissolution, in correspondence with the venous plexus, while the conventional oral tablets were swallowed unbroken with 150 ml of mineral water. Within the intervals of 0-20-40 minutes, 1-1,5-2-2,5-3-3,5-4-6-8-10-[…] and 24 hours after the treatment, 5 ml of blood were collected.

[2] = cited from earlier work; for plasmatic concentration peak: 2 mg tablets

| SMILES | AUC(0-inf) [1] [ng·h/mL] | AUC(0-t) [1] [ng·h/mL] | Cmax [1] [ng/mL] | Tmax [1] [min] | concentration ([1]; other: sublingual) [ng/mL] | concentration at 0 min ([1]; other: sublingual) [ng/mL] | concentration at 20 min ([1]; other: sublingual) [ng/mL] | concentration at 40 min ([1]; other: sublingual) [ng/mL] | concentration at 1 h ([1]; other: sublingual) [ng/mL] | concentration at 2 h ([1]; other: sublingual) [ng/mL] | concentration at 2.5 h ([1]; other: sublingual) [ng/mL] | concentration at 4 h ([1]; other: sublingual) [ng/mL] | concentration at 6 h ([1]; other: sublingual) [ng/mL] | concentration at 8 h ([1]; other: sublingual) [ng/mL] | concentration at 10 h ([1]; other: sublingual) [ng/mL] | concentration at 12 h ([1]; other: sublingual) [ng/mL] | concentration at 24 h ([1]; other: sublingual) [ng/mL] | Tmax ([1]; other: sublingual versus oral) [min] | AUC(0-inf) ([1]; po) [ng·h/mL] | AUC(0-t) ([1]; po) [ng·h/mL] | also measured |
| --- | --- | --- | --- | --- | --- | --- | --- | --- | --- | --- | --- | --- | --- | --- | --- | --- | --- | --- | --- | --- | --- |
| O=C1CN=C(c2ccccn2)c2cc(Br)ccc2N1 [BROMAZEPAN, bromazepam] | 1900 ± 326 | 1160 ± 102 | 120 ± 12.1 | 45 ± 9 | 67.9 ± 6.1 | 0 | 80.8 ± 11.3 | 109 ± 22.1 | 110 ± 15.2 | 84 ± 5.7 | 74.2 ± 5.7 | 63.4 ± 5.5 | 57.1 ± 5 | 49.4 ± 7 | 44.8 ± 6.2 | 38.8 ± 5.6 | 33.5 ± 6.1 | ~30 | 1760 ± 223 | 1130 ± 60.2 | Cmax ([1]; po): 125 ± 9.81 ng/mL; Tmax ([1]; po): 75 ± 22.8 min; concentration ([1]; po): 70.2 ± 6.8 ng/mL; concentration at 20 min ([1]; po): 69 ± 10.1 ng/mL; concentration at 40 min ([1]; po): 91.7 ± 5.6 ng/mL; concentration at 1 h ([1]; po): 117 ± 14.9 ng/mL; concentration at 2 h ([1]; po): 91.6 ± 9.7 ng/mL; concentration at 2.5 h ([1]; po): 77.2 ± 5.9 ng/mL; concentration at 4 h ([1]; po): 63.1 ± 6.9 ng/mL; concentration at 6 h ([1]; po): 53.4 ± 4.8 ng/mL; concentration at 8 h ([1]; po): 49.1 ± 4.4 ng/mL; concentration at 10 h ([1]; po): 42.7 ± 3.1 ng/mL; concentration at 12 h ([1]; po): 37.9 ± 3 ng/mL; concentration at 24 h ([1]; po): 30.2 ± 3.8 ng/mL; AUC and Cmax, sublingual versus oral [1]: comparable |
| CN1C(=O)CN=C(c2ccccc2)c2cc(Cl)ccc21 [DIAZEPAM, diazepam] | – | – | – | – | – | – | – | – | – | – | – | – | – | – | – | – | – | – | – | – | hematological rates after sublingual administration in relation to oral administration ([1]; first hour): definitely higher |
| O=C1Nc2ccc(Cl)cc2C(c2ccccc2Cl)=NC1O (stereo not drawn) [LORAZEPAM, lorazepam] | 621 ± 70.1 | 452 ± 53 | 56.9 ± 8.41 | 42.6 ± 720 | 28.3 ± 4.2 | 0 | 44.5 ± 5.9 | 56.5 ± 8.5 | 47.9 ± 8.5 | 37.2 ± 7.7 | 32.2 ± 4.4 | 25.6 ± 5 | 22.8 ± 4.61 | 9.6 ± 3.7 | 17.6 ± 2.6 | 14.5 ± 2.3 | 10.3 ± 1.1 | ~30 | 656 ± 143 | 454 ± 74.1 | Cmax ([1]; po): 54.4 ± 4.98 ng/mL; Tmax ([1]; po): 91.2 ± 29.4 min; concentration ([1]; po): 33.4 ± 10.3 ng/mL; concentration at 0 min ([1]; po): 0 ng/mL; concentration at 20 min ([1]; po): 30.8 ± 9.4 ng/mL; concentration at 40 min ([1]; po): 41 ± 10.4 ng/mL; concentration at 1 h ([1]; po): 46.1 ± 7.9 ng/mL; concentration at 2 h ([1]; po): 47.3 ± 9.1 ng/mL; concentration at 2.5 h ([1]; po): 39 ± 10.2 ng/mL; concentration at 4 h ([1]; po): 28.2 ± 8.4 ng/mL; concentration at 6 h ([1]; po): 22.6 ± 5.7 ng/mL; concentration at 8 h ([1]; po): 19.6 ± 4.8 ng/mL; concentration at 10 h ([1]; po): 16.6 ± 3.5 ng/mL; concentration at 12 h ([1]; po): 13.5 ± 2.3 ng/mL; concentration at 24 h ([1]; po): 10.6 ± 1.7 ng/mL; AUC and Cmax, sublingual versus oral [1]: comparable; plasmatic concentration peak ([2]; after oral administration): ~17 ng/mL; plasmatic concentration peak ([2]; after sublingual administration): about 25 ng/ml; absorption of sublingual formulation compared to oral tablets and intramuscular formulation ([2]; during the first 60 minutes, 2 mg): higher |
